From patent publication US20240148821A1, “PHARMACEUTICAL USE OF CYCLIC PEPTIDE COMPOUND” (CHUGAI SEIYAKU KABUSHIKI KAISHA, priority 2021, published 2024)
Numbered stars: 1 amine (or outer) side, 2 acyl side, 3 side chain; on linkers, the order of the positions; unused ones are H or OH. Bridge positions count the residues as written; N and C are the ends. Square brackets hold non-standard residues; d marks the D form. Peptide text beside a SMILES is read from it. * marks the point of attachment. hPhe(3-Cl-4-CF3) = N[C@@H](CCc1ccc(C(F)(F)F)c(Cl)c1)C(=O)O; hPhe(3-F,4-CF3) = N[C@@H](CCc1ccc(C(F)(F)F)c(F)c1)C(=O)O; ACHC(1R,2R) = O=C([C@@H]1CCCC[C@H]1N[*:1])[*:2]; NMeAla(4-thiazolyl) = CN[C@@H](Cc1cscn1)C(=O)O; NMePhe(4-Cl) = CN[C@@H](Cc1ccc(Cl)cc1)C(=O)O; NMePhe(4-Me) = CN[C@@H](Cc1ccc(C)cc1)C(=O)O; X128 = O=C([C@H](Cc1cccc(F)c1F)N[*:1])[*:2]; NMePhe(3-F) = CN[C@@H](Cc1cccc(F)c1)C(=O)O; NMeGly(cPent) = CN[C@H](C(=O)O)C1CCCC1; Pro(4,4-F2) = O=C(O)[C@@H]1CC(F)(F)CN1; NMeY = CN[C@@H](Cc1ccc(O)cc1)C(=O)O; NMeCha = CN[C@@H](CC1CCCCC1)C(=O)O; NEtLeu = CCN[C@@H](CC(C)C)C(=O)O; NMeChg = CN[C@H](C(=O)O)C1CCCCC1; NMeF = CN[C@@H](Cc1ccccc1)C(=O)O; NMeI = CC[C@H](C)[C@H](NC)C(=O)O; NMeD = CN[C@@H](CC(=O)O)C(=O)O; NMeL = CN[C@@H](CC(C)C)C(=O)O; NMeV = CN[C@H](C(=O)O)C(C)C; d(β3hA) = C[C@@H](N)CC(=O)O; NMeAbu = CC[C@H](NC)C(=O)O; NMeS = CN[C@@H](CO)C(=O)O; Morpholide = C1CN(*)CCO1; NMeA = CN[C@@H](C)C(=O)O; NMeAib = CNC(C)(C)C(=O)O; Nle = CCCC[C@H](N)C(=O)O; Piperidide = C1CCN(*)CC1; Pyrrolidide = C1CCN(*)C1; dNMeA = CN[C@H](C)C(=O)O; Ac5c = NC1(C(=O)O)CCCC1; Aze = O=C(O)[C@@H]1CCN1; Isopentyl = CC(C)CC*; Sar = CNCC(=O)O

test system: Human pancreatic cancer cell line AsPC-1 (G12D mutation Kras); assay: AsPC-1 cell growth inhibition (AsPC-1 CGI); type: cell-based; details: read-out: AsPC-1 cell growth inhibition, 50% growth inhibitory concentration (IC50 value); 96 hours, CellTiter-Glo, values classified in ranges
Procedure: Test compounds were serially dilated with dimethyl sulfoxide, and 200 nL was then dispensed to a U-bottom 96-well plate using Labcyte Echo. […] The cell suspension was dispensed to a. plate containing a test compound at 100 μL per well and incubated at 37° C. in a 5% carbon dioxide gas incubator. 96 hours later, 80 μL of CellTiter-Glo (Promega) was added to each well and fluorescence was measured.

Q: `CC[C@H](C)[C@@H]1NC(=O)[C@H](CC(C)C)N(C)C(=O)C[C@@H](C(=O)N(C)C)N(C)C(=O)[C@H]([C@@H](C)CC)N(C)C(=O)C2(CCCC2)NC(=O)[C@H](COCCC(C)C)N(C)C(=O)[C@H](CCc2ccc(C(F)(F)F)c(Cl)c2)NC(=O)CN(C)C(=O)[C@H](Cc2ccc(C)cc2)N(C)C(=O)[C@@H]2CCN2C(=O)[C@H](C)N(C)C1=O` [Compound 27] ([NMeL]I[NMeA][Aze][NMePhe(4-Me)][Sar][hPhe(3-Cl-4-CF3)][NMeS](Isopentyl)[Ac5c][NMeI][NMeD]-NMe2; lactam N-11) was tested. Which IC50 did it give?
A: ≤ 20 nM

Q: How did the IC50 turn out when `CCCC[C@@H]1NC(=O)[C@H](Cc2cccc(F)c2F)NC(=O)CN(C)C(=O)[C@H](Cc2ccc(OC)cc2)N(C)C(=O)[C@@H]2CCN2C(=O)[C@H](C)N(C)C(=O)[C@H]([C@@H](C)CC)NC(=O)[C@H](CC)N(C)C(=O)C[C@@H](C(=O)N2CCCCC2)N(C)C(=O)[C@H](CC(C)C)NC(=O)C(C)(C)N(C)C1=O` [Compound 1256] ([NMeAbu]I[NMeA][Aze][NMeY](Me)[Sar][X128][Nle][NMeAib]L[NMeD]-Piperidide; lactam N-11) was run?
A: > 500 nM

Q: How did the IC50 turn out when `CC[C@H](C)[C@@H]1NC(=O)[C@H](CC(C)C)N(C)C(=O)C[C@@H](C(=O)N2CCOCC2)N(C)C(=O)[C@H](C2CCCCC2)N(C)C(=O)C2(CCCC2)NC(=O)[C@@H]2CC(F)(F)CN2C(=O)[C@H](CCc2ccc(C(F)(F)F)c(Cl)c2)NC(=O)CN(C)C(=O)[C@H](CC2CCCCC2)N(C)C(=O)CN(C)C(=O)CN(C)C1=O` [Compound 1194] ([NMeL]I[Sar][Sar][NMeCha][Sar][hPhe(3-Cl-4-CF3)][Pro(4,4-F2)][Ac5c][NMeChg][NMeD]-Morpholide; lactam N-11) was run?
A: ≤ 20 nM

Q: `CC[C@H](C)[C@@H]1NC(=O)[C@H](CC(C)C)N(C)C(=O)C[C@@H](C(=O)N2CCCC2)N(C)C(=O)[C@H](C2CCCC2)N(C)C(=O)C2(CCCC2)NC(=O)[C@@H]2CC(F)(F)CN2C(=O)[C@H](CCc2ccc(C(F)(F)F)c(Cl)c2)NC(=O)CN(C)C(=O)[C@H](CC2CCCCC2)N(C)C(=O)CN(C)C(=O)CN(C)C1=O` [Compound 1270] ([NMeL]I[Sar][Sar][NMeCha][Sar][hPhe(3-Cl-4-CF3)][Pro(4,4-F2)][Ac5c][NMeGly(cPent)][NMeD]-Pyrrolidide; lactam N-11) was tested. Which IC50 did it give?
A: ≤ 20 nM

Q: Which IC50 does the source give for `CC[C@H](C)[C@@H]1NC(=O)[C@H](C)N(C)C(=O)C[C@@H](C)NC(=O)[C@H](C(C)C)N(C)C(=O)[C@H](Cc2ccccc2)N(C)C(=O)[C@H](CC(C)C)N(C)C(=O)[C@H](CCc2ccc(C(F)(F)F)c(Cl)c2)NC(=O)CN(C)C(=O)[C@H](Cc2ccc(Cl)cc2)N(C)C(=O)[C@@H]2CCN2C(=O)CN(C)C1=O` [Compound 994] (cyclo([Aze][NMePhe(4-Cl)][Sar][hPhe(3-Cl-4-CF3)][NMeL][NMeF][NMeV][d(β3hA)][NMeA]I[Sar])) here?
A: > 500 nM

Q: Which IC50 does the source give for `CC[C@H](C)[C@@H]1NC(=O)[C@H](C)N(C)C(=O)C[C@@H](C)NC(=O)[C@H](C(C)C)N(C)C(=O)C2(CCCC2)NC(=O)[C@@H]2CCCN2C(=O)[C@H](CCc2ccc(C(F)(F)F)c(Cl)c2)NC(=O)CN(C)C(=O)[C@H](CC2CCCCC2)N(C)C(=O)[C@@H]2CCN2C(=O)[C@H](C)N(C)C1=O` [Compound 1578] (cyclo([Ac5c][NMeV][d(β3hA)][NMeA]I[NMeA][Aze][NMeCha][Sar][hPhe(3-Cl-4-CF3)]P)) here?
A: > 500 nM

Q: Which IC50 does the source give for `CC[C@H](C)[C@@H]1NC(=O)[C@H](C)N(C)C(=O)C[C@@H](C)NC(=O)[C@H](C(C)C)N(C)C(=O)C2(CCCC2)NC(=O)[C@@H]2CCCN2C(=O)[C@H](CCc2ccc(C(F)(F)F)c(Cl)c2)NC(=O)[C@@H](C)N(C)C(=O)[C@H](CC2CCCCC2)N(C)C(=O)[C@@H]2CCCN2C(=O)CN(C)C1=O` [Compound 516] (cyclo([Ac5c][NMeV][d(β3hA)][NMeA]I[Sar]P[NMeCha][dNMeA][hPhe(3-Cl-4-CF3)]P)) here?
A: > 500 nM

Q: Which IC50 does the source give for `CC[C@H](C)[C@@H]1NC(=O)[C@H](CC(C)C)NC(=O)[C@@H]2CCCC[C@H]2NC(=O)[C@H](C(C)C)N(C)C(=O)C2(CCCC2)NC(=O)[C@@H]2CCCN2C(=O)[C@H](CCc2ccc(C(F)(F)F)c(Cl)c2)NC(=O)CN(C)C(=O)[C@H](CC2CCCCC2)N(C)C(=O)CN(C)C(=O)CN(C)C1=O` [Compound 569] (cyclo([Ac5c][NMeV][ACHC(1R,2R)]LI[Sar][Sar][NMeCha][Sar][hPhe(3-Cl-4-CF3)]P)) here?
A: > 500 nM

Q: `CC[C@H](C)[C@@H]1NC(=O)[C@H](CC(C)C)N(C)C(=O)C[C@@H](C)NC(=O)[C@H](CC(C)C)N(C)C(=O)C2(CCCC2)NC(=O)[C@@H]2CC(F)(F)CN2C(=O)[C@H](CCc2ccc(C(F)(F)F)c(F)c2)NC(=O)CN(C)C(=O)[C@H](CC2CCCCC2)N(C)C(=O)CN(C)C(=O)CN(C)C1=O` [Compound 1509] (cyclo([Ac5c][NMeL][d(β3hA)][NMeL]I[Sar][Sar][NMeCha][Sar][hPhe(3-F,4-CF3)][Pro(4,4-F2)])) was tested. Which IC50 did it give?
A: > 500 nM

Q: For `CC[C@H](C)[C@@H]1NC(=O)[C@H](CC(C)C)N(C)C(=O)C[C@@H](C(=O)N2CCCCC2)N(C)C(=O)[C@H](COC)N(C)C(=O)C2(CCCC2)NC(=O)[C@@H]2CCCN2C(=O)[C@H](CCc2ccc(C(F)(F)F)c(Cl)c2)NC(=O)CN(C)C(=O)[C@H](CC2CCCCC2)N(C)C(=O)CN(C)C(=O)CN(C)C1=O` [Compound 850] ([NMeL]I[Sar][Sar][NMeCha][Sar][hPhe(3-Cl-4-CF3)]P[Ac5c][NMeS](Me)[NMeD]-Piperidide; lactam N-11), which IC50 is on record?
A: > 500 nM

Q: How did the IC50 turn out when `CC[C@H](C)[C@@H]1NC(=O)[C@H](C)N(C)C(=O)C[C@@H](C(=O)N2CCCCC2)N(C)C(=O)[C@H](C(C)C)N(C)C(=O)C2(CCCC2)NC(=O)[C@H](Cc2cccc(F)c2)N(C)C(=O)[C@H](CCc2ccc(C(F)(F)F)c(Cl)c2)NC(=O)CN(C)C(=O)[C@H](CC2CCCCC2)N(C)C(=O)CN(C)C(=O)CN(C)C1=O` [Compound 945] ([NMeA]I[Sar][Sar][NMeCha][Sar][hPhe(3-Cl-4-CF3)][NMePhe(3-F)][Ac5c][NMeV][NMeD]-Piperidide; lactam N-11) was run?
A: > 500 nM

Q: Which IC50 does the source give for `CC[C@H](C)[C@@H]1NC(=O)[C@H](CC(C)C)N(CC)C(=O)C[C@@H](C(=O)N(C)C)N(C)C(=O)[C@H](C2CCCC2)N(C)C(=O)C2(CCCC2)NC(=O)[C@@H]2CCCN2C(=O)[C@H](CCc2ccc(C(F)(F)F)c(Cl)c2)NC(=O)CN(C)C(=O)[C@H](Cc2ccc(C)cc2)N(C)C(=O)[C@@H]2CCN2C(=O)[C@H](C)N(C)C1=O` [Compound 1148] ([NEtLeu]I[NMeA][Aze][NMePhe(4-Me)][Sar][hPhe(3-Cl-4-CF3)]P[Ac5c][NMeGly(cPent)][NMeD]-NMe2; lactam N-11) here?
A: ≤ 20 nM

Q: Which IC50 does the source give for `CC[C@H](C)[C@@H]1NC(=O)[C@H](CC(C)C)N(C)C(=O)C[C@@H](C(=O)N(C)C)N(C)C(=O)[C@H]([C@@H](C)CC)N(C)C(=O)[C@H](C)NC(=O)[C@H](Cc2cscn2)N(C)C(=O)[C@H](CCc2ccc(C(F)(F)F)c(Cl)c2)NC(=O)CN(C)C(=O)[C@H](Cc2ccc(C)cc2)N(C)C(=O)[C@@H]2CCN2C(=O)[C@H](C)N(C)C1=O` [Compound 856] ([NMeL]I[NMeA][Aze][NMePhe(4-Me)][Sar][hPhe(3-Cl-4-CF3)][NMeAla(4-thiazolyl)]A[NMeI][NMeD]-NMe2; lactam N-11) here?
A: > 500 nM
